# Assay: Melting point of oil/aliphatic acid mixtures by differential scanning calorimeter (DSC)
# Assay type: physicochemical
# Method: Eleven exemplary pesticidal compositions, each comprising a different mixture ratio of neem oil and octanoic acid, were prepared according to the following description. Each composition comprised a combined 10-20 mg of cold-pressed neem oil and octanoic acid. The neem oil and octanoic acid were passively mixed by commingling in liquid phase in the testing vessel (an aluminum pan with an aluminum cap) at a temperature above each ingredient's melting point. Mixture ratios were determined by weight—e.g. a 10 mg mixture in 60:40 ratio would comprise 6 mg of neem oil and 4 mg of octanoic acid. The mixture's melting point was then measured by a differential scanning calorimeter (DSC), and particularly by a TA Instruments® DSC Q2000™ differential scanning calorimeter. The following method was used for DSC measurement of each mixture: the mixture was equilibrated at 40° C., then isothermally held for 15 minutes, then equilibrated at −30° C., and then ramped at 5° C./minute to 70° C. […]
# (§1) Eleven exemplary pesticidal compositions, each comprising a different mixture ratio of palm oil and octanoic acid, were prepared according to the following description. […] Mixture ratios were determined by weight—e.g. a 10 mg mixture in 60:40 ratio would comprise 6 mg of palm oil and 4 mg of octanoic acid. The mixture's melting point was then measured by differential scanning calorimeter. […]
# as §1, with “coconut” for “palm”
# as §1, with “karanja” for “palm”, “acid.” for “acid. The mixture's melting point was then measured by differential scanning calorimeter.”
row,SMILES,Melting Point
1,CC/C=C/CC(=O)O [trans-3 hexenoic acid],about 11.36 °C
2,CCCCCCCCCC(=O)O [decanoic acid],about 11.36 °C
3,CCCCCCCC/C=C\CCCCCCCC(=O)O [oleic acid],about 11.31 °C

# From patent publication US20230189821A1, “PESTICIDAL COMPOSITIONS WITH ENHANCED PHYSICAL CHARACTERISTICS” (Terramera, Inc., priority 2020, published 2023)
